# Measurements taken from patent US20050202467A1, “Novel spliced 5-HT1A receptors and methods, kits, and uses relating thereto” (Philadelphia Health and Education Corporation (d/b/a MCP …, priority 2003, published 2005).
# What was measured:
# primary T cells = test: response of mitogen (PHA) stimulated T-cells to selective 5-HT1A inhibitors; format: cell-based; conditions: mitogen (PHA) stimulated T cell cultures, at the concentrations tested (FIG. 2)
# [1] = system: neoplastic B and T cell lines; test: inhibition of activation of neoplastic B and T cell lines; format: cell-based
# Source text: Each of the tested compounds has a high affinity for the 5-HT1A receptor and was expected to inhibit the receptor's activity equally well.
Molecule,inhibition of the activation of primary T cells (primary T cells),inhibition of the activation of neoplastic B and T cell lines [1]
COc1ccccc1N1CCN(CCCCN2C(=O)c3ccccc3C2=O)CC1 [NAN-190],reproducibly inhibited,reproducibly inhibited
COc1ccccc1N1CCN(CCN(C(=O)c2ccc(F)cc2)c2ccccn2)CC1 [p-MPPF],little or no effects,–
WAY-100635,little or no effects,–
